# Results reported in patent publication US20110077270A1, “Compositions and Methods for Treating Ocular Inflammation with Lower Risk of Increased Intraocular Pressure” (priority 2009, published 2011).
# Values joined by “and” are separate entries in the source; they are usually repeats but may differ in a detail not shown here. Equal entries are not always repeated. Where two headings read alike, the source gives them in different places.
# Experiments:
# [1] = tested on: myocilin protein in CM of monkey TM cells; assay: Myocilin protein in conditioned media of monkey TM cells (Western blot); format: cell-based, rhesus monkeys (Macaca mulatta); conditions: for EC50: nine monkey TM cell strains; for Efficacy ± SE (weighted average; %): estimated efficacy at 300 nM for inducing myocilin protein expression, normalized to DEX (100%), nine experiments (one per strain)
# Description: For each study, up to nine TM cell strains, each derived from an individual monkey, were tested separately. Cells were thawed and seeded into 12- or 48-well clusters (Falcon, BD Biosciences; 150,000 and 30,000 cells/well, respectively) in proliferation medium. When cells were 75% to 90% confluent proliferation medium was replaced by a 5:4 mixture of HESFM and Dulbecco's MEM, respectively, supplemented with 10% FBS, with added taurine, ascorbic acid phosphate, glutathione, and antibiotic as for proliferation medium (above), and with 2.72 g/L glucose and 1.72 g/L fructose. At confluence, the medium was changed to Dulbecco's MEM, containing 10% FBS^40, ascorbic acid phosphate, antibiotic, 2.72 g/L glucose and 1.72 g/L fructose. Cells were maintained as stable, confluent monolayers in this latter medium for 4 to 7 days before experimental treatments commenced.
# All treatments, including media for vehicle control samples, contained a final DMSO concentration of 0.1% (v/v) across the concentration ranges selected. Treatments lasted 96 hours, with one exchange of medium on the third treatment day. The final 48-hr conditioned media (“CM”) samples were collected in their entirety (0.5 ml), centrifuged briefly to remove particulates, aliquoted, and stored at −20° C. until thawed for analysis.
# Undiluted CM was combined with denaturing 4× sample buffer containing 2% SDS, and samples were loaded at equivalent protein content onto 4-20% Tris-HCl polyacrylamide gels (BioRad, Hercules, Calif.). After electrophoresis, proteins underwent wet transfer to […] nitrocellulose (BioRad) for immunoblotting. The filters were blocked with 5% (w/v) nonfat dry milk (BioRad) in Tris-buffered saline plus 0.02% (v/v) Tween-20 (“TBST”; Tween-20 from Calbiochem, San Diego, Calif.), and incubated with a 1:2000 dilution (from 200 μg/ml) of goat anti-recombinant human myocilin antibody (R&D Systems, Minneapolis, Minn.) in blocking buffer, overnight at 4° C. After washing in TBST, the filters were incubated with a 1:25,000 dilution (from 0.8 mg/ml) of horseradish peroxide-conjugated mouse anti-goat IgG (H+L) (Pierce Biotechnology, Rockford, Ill.) in blocking buffer, for 90 minutes at room temperature. After washing in TBST, the blots were developed in SuperSignal® West Dura Extended Duration Substrate (Pierce) for chemiluminescent detection. Bands corresponding to myocilin were digitally captured and stored using a FluorChem Imager (Alpha-Innotech, San Leandro, Calif.), with all blots receiving equal exposure/capture times. The imager system software was then used to calculate pixel density for equivalent rectangular areas incorporating the bands.
# Data underwent Box-Cox transformations for one- or two-way analysis of variance (ANOVA), followed by the Tukey-Kramer test, using JMP software (SAS, Cary, N.C.). The specific transformations used for analyses are mentioned in the figure legends. For each set of triplicate samples from the individual monkey TM cell strains tested, Western blot densitometry values for myocilin protein detected in CM (as geometric means), and relative abundance of myocilin mRNA (as geometric means), were plotted as a function of drug concentrations. P-values less than 0.05 were considered statistically significant. Dose-response curve data were fitted to a re-parameterized four-parameter logistic equation using similar methodology to that previously described, and these equations permitted estimation of the EC50 values±95% confidence intervals, for each drug treatment.
# [2] = tested on: rabbit paracentesis model; assay: Clinical evaluation (slit lamp clinical score), rabbit paracentesis model; format: in vivo; parameters: key to Clinical Score −180 min / Clinical Score −5 min / Clinical Score +115 min: 0: normal; 1: discrete dilatation of iris and conjunctival vessels; 2: moderate dilatation of iris and conjunctival vessels; 3: intense iridal hyperemia with flare in the anterior chamber; 4: intense iridal hyperemia with flare in the anterior chamber and presence of fibrinous exudates; conditions: for Clinical Score −5 min: 5 min before first paracentesis; for Clinical Score −5 min / Clinical Score +115 min / Clinical Score −180 min: individual eye; for Clinical Score +115 min: 5 min before second paracentesis; for Clinical Score −180 min: basal
# [3] = tested on: PGE2 in the aqueous humor; assay: Prostaglandin E2 (PGE2) measurement in aqueous humor, rabbit paracentesis model; format: in vivo; conditions: second paracentesis; for PGE2 level in aqueous humor, Mean: group mean; for PGE2 level in aqueous humor: individual eye
# Description: Each rabbit was placed in a restraint device and tagged with the alphanumeric code. The formulations were instilled (50 μl) into the conjunctival sac of both eyes 180, 120, 90 and 30 min before the first paracentesis; then 15, 30, 90 min after the first paracentesis. To perform the first paracentesis the animals were anaesthetized by intravenous injection of 5 mg/kg Zoletil® (Virbac; 2.5 mg/kg tiletamine HCl and 2.5 mg/kg zolazepam HCl) and one drop of local anesthetic (Novesina®, Novartis) was administered to the eye. Anterior chamber paracentesis was performed with a 26 G needle attached to a tuberculin syringe; the needle was introduced into the anterior chamber through the cornea, taking care not to damage the tissues. Two hours after the first paracentesis, the animals were sacrificed with 0.4 ml Tanax® (Intervet International B.V.) and the second paracentesis was performed. About 100 μl of aqueous humor were removed at the second paracentesis. Aqueous humor was immediately split in four aliquots and stored at −80° C. until analysis. Then both eyes were enucleated and the iris-ciliary body was carefully excised, placed in polypropylene tubes, and stored at −80° C. until analysis.
# For the quantitative determination of PGE2 in the aqueous humor we used the PGE2 Immunoassay kit (R&D Systems; Cat. No. KGE004; Lot. No. 240010). Eleven microliters or 16 μl of aqueous humor were diluted to 110 μl or 160 μl with the calibrator diluent solution provided with the kit. One hundred microliters of samples and of standards were load into a 96-well plate and recorded in a plate layout. Samples were treated following the assay procedure described in the kit. A microplate reader (GDV, Italy; model DV 990 B/V6) set at 450 nm (wavelength correction at 540 nm) was used for making the calibration and analyzing the samples.
# [4] = Primates, expression of myocilin protein, weighted averages, read-out: EC50 ± SE
# [5] = Primates, 96 hours treatment, read-out: EC50, myocilin protein expression
# [6] = 0.1% topical formulation, listed as BOL
# [7] = 0.1% topical formulation, +115 min
# [8] = 0.1% topical formulation, −5 min
# [9] = 0.1% topical formulation, −180 min (basal)
# [10] = 0.5% topical formulation, listed as BOL
# [11] = 0.5% topical formulation, +115 min
smiles,measurement,setting,value
Cc1ccc2c(NCC(O)(CC(C)(C)c3cc(F)cc4c3OCC4)C(F)(F)F)cccc2n1 (stereo not drawn) [BOL-303242-X],Myocilin protein released by cultured monkey TM cells compared to DEX,[1]; 3 to 300 nM,significantly lower levels of myocilin protein
same,Emax,"[1]; Primates, read-out: Maximal efficacy for myocilin protein accumulation, relative to that observed after DEX treatment, computed across all nine TM cell strains",~50%
same,EC50,[1]; [4],21 ± 4.28 nM
same,EC50,[1]; [5],21 nM
same,Efficacy ± SE (weighted average; %),[1],53.12 ± 2.20%
same,Clinical Score −5 min,[2]; 0.1% topical formulation,0
same,Clinical Score +115 min,[2]; [6],2 (6×) and 3 (2×)
same,Percentage of eyes with clinical score 2,[2]; [7],75%
same,Percentage of eyes with clinical score 3,[2]; [7],25%
same,Clinical Score −180 min,[2]; 0.1% topical formulation,0
same,Percentage of eyes with clinical score 0,[2]; [8],100%
same,Percentage of eyes with clinical score 0,[2]; [9],100%
same,Clinical Score −5 min,[2]; 0.5% topical formulation,0
same,Clinical Score +115 min,[2]; [10],2 (5×) and 1 (3×)
same,Percentage of eyes with clinical score 1,[2]; [11],37.5%
same,Percentage of eyes with clinical score 2,[2]; [11],62.5%
same,Clinical Score −180 min,[2]; 0.5% topical formulation,0
same,Percentage of eyes with clinical score 0,"[2]; 0.5% topical formulation, −5 min",100%
same,Percentage of eyes with clinical score 0,"[2]; 0.5% topical formulation, −180 min (basal)",100%
same,Clinical Score −5 min,[2]; 1% topical formulation,0
same,Clinical Score +115 min,[2]; 1% topical formulation,2
same,Percentage of eyes with clinical score 2,"[2]; 1% topical formulation, +115 min",100%
same,Clinical Score −180 min,[2]; 1% topical formulation,0
same,Percentage of eyes with clinical score 0,"[2]; 1% topical formulation, −5 min",100%
same,Percentage of eyes with clinical score 0,"[2]; 1% topical formulation, −180 min (basal)",100%
same,"PGE2 level in aqueous humor, Mean",[3]; 0.1% topical formulation,1.452 ng/mL
same,PGE2 level in aqueous humor,[3]; [6],1.62 ng/mL and 1.88 ng/mL and 2.15 ng/mL and 0.70 ng/mL and 1.34 ng/mL and 1.03 ng/mL
same,"PGE2 level in aqueous humor, Mean",[3]; 0.5% topical formulation,1.384 ng/mL
same,PGE2 level in aqueous humor,[3]; [10],2.31 ng/mL and 2.59 ng/mL and 0.53 ng/mL and 0.75 ng/mL and 0.80 ng/mL and 1.62 ng/mL and 1.09 ng/mL
same,"PGE2 level in aqueous humor, Mean",[3]; 1% topical formulation,2.168 ng/mL
same,PGE2 level in aqueous humor,"[3]; 1% topical formulation, listed as BOL",0.50 ng/mL and 1.87 ng/mL and 1.71 ng/mL and 4.04 ng/mL and 1.11 ng/mL and 3.78 ng/mL
"C[C@@H]1C[C@H]2[C@@H]3CCC4=CC(=O)C=C[C@]4(C)[C@@]3(F)[C@@H](O)C[C@]2(C)[C@@]1(O)C(=O)CO [Dex, dexamethasone, reference compound]",Myocilin protein level over control,"[1]; 300 nM, one of the monkey TM cell strains, CM of second 48-hour period",1233%
same,EC50,[1]; [4],14.6 ± 2.65 nM
same,EC50,[1]; [5],14.6 nM
same,Efficacy ± SE (weighted average; %),[1],100 ± 6.09%
same,Clinical Score −5 min,[2]; 0.1% topical formulation,0 (6×) and 1 (2×)
same,Clinical Score +115 min,[2]; 0.1% topical formulation,1 (6×) and 3 (2×)
same,Percentage of eyes with clinical score 1,[2]; [7],75%
same,Percentage of eyes with clinical score 3,[2]; [7],25%
same,Clinical Score −180 min,[2]; 0.1% topical formulation,0
same,Percentage of eyes with clinical score 0,[2]; [8],75%
same,Percentage of eyes with clinical score 1,[2]; [8],25%
same,Percentage of eyes with clinical score 0,[2]; [9],100%
same,"PGE2 level in aqueous humor, Mean",[3]; 0.1% topical formulation,2.263 ng/mL
same,PGE2 level in aqueous humor,[3]; 0.1% topical formulation,2.51 ng/ml and 2.32 ng/ml (2×) and 2.10 ng/ml and 3.03 ng/ml and 1.30 ng/ml
